Reference: ChEMBL document CHEMBL4346703, “Structure Overhaul Affords a Potent Purine PI3Kδ Inhibitor with Improved Tolerability” (J Med Chem, 2019)

Legend:
[1] = target: PI3-kinase p110-alpha/p85-alpha (Homo sapiens, UniProt P42336); assay: Inhibition of N-terminal His6-tagged recombinant full length human p110alpha/untagged recombinant full length human p85alpha expressed in baculovirus infected Sf21 insect cells using PIP2 as substrate preincubated for 15 mins followed by substrate addition and measured after 1 hr by HTRF assay
Sequence of PI3-kinase p110-alpha/p85-alpha (P27986 whole entry): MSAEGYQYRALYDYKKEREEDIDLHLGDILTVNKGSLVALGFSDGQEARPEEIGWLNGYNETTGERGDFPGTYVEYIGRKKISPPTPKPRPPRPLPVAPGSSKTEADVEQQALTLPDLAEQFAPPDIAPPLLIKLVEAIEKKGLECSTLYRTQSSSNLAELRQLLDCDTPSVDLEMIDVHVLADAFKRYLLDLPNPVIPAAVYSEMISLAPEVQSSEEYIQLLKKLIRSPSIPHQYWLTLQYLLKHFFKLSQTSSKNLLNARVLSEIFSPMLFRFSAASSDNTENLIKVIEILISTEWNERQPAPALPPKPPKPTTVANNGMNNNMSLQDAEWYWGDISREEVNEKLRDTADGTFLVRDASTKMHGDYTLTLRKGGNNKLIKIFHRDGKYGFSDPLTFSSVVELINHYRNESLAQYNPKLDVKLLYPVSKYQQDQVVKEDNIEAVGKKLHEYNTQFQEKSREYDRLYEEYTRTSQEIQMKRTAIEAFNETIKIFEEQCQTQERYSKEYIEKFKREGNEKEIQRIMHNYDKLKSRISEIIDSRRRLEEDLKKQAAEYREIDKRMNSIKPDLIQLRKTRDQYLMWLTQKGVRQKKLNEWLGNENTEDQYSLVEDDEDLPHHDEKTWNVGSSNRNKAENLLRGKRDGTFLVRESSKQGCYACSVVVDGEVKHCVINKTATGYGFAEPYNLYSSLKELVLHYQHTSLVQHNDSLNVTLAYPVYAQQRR
Sequence of PI3-kinase p110-alpha/p85-alpha (P42336 whole entry): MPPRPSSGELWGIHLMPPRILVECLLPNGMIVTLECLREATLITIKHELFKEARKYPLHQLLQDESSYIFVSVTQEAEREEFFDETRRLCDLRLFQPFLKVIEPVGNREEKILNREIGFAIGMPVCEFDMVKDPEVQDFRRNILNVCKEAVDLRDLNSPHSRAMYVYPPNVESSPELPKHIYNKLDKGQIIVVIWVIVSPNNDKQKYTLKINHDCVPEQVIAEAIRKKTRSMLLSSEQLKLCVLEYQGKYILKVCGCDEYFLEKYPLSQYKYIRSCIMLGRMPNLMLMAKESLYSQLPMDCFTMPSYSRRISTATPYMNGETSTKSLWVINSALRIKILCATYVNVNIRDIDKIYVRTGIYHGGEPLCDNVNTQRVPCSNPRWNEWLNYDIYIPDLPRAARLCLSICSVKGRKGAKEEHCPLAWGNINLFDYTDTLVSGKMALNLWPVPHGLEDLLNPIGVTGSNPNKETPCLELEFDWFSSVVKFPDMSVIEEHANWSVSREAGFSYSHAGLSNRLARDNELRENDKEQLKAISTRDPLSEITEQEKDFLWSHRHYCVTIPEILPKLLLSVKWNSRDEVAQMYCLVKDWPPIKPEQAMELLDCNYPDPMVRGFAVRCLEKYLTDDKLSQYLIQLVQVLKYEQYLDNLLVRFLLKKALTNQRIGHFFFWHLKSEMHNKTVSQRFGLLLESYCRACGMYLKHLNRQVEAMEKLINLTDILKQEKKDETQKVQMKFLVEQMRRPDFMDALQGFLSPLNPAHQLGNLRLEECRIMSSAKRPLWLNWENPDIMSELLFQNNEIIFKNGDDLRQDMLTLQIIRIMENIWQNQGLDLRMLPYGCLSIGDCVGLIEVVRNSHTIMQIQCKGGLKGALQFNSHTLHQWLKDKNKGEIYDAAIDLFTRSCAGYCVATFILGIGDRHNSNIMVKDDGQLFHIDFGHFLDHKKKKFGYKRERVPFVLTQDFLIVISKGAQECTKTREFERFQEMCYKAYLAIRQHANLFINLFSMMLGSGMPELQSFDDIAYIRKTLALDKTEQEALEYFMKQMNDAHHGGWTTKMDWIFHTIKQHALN

[2] = target: PI3-kinase p110-delta/p85-alpha (Homo sapiens, UniProt O00329); assay: Inhibition of N-terminal His6-tagged recombinant full length human p110delta/untagged recombinant full length human p85alpha expressed in baculovirus infected Sf21 insect cells using PIP2 as substrate preincubated for 15 mins followed by substrate addition and measured after 1 hr by HTRF assay
Sequence of PI3-kinase p110-delta/p85-alpha (P27986 whole entry, one chain of several, canonical isoform): as the sequence (P27986 whole entry) above

[3] = target: T1, Phosphatidylinositol 4,5-bisphosphate 3-kinase catalytic subunit delta isoform (Homo sapiens, UniProt O00329); assay: Inhibition of PI3Kdelta in human Ramos cells assessed as reduction in anti-IgM-antibody-induced phosphorylation of AKT at Ser473 residue preincubated for 20 mins followed by anti-IgM antibody stimulation and measured after 30 mins by alphascreen assay; format: cell-based
T1 sequence (O00329 whole entry): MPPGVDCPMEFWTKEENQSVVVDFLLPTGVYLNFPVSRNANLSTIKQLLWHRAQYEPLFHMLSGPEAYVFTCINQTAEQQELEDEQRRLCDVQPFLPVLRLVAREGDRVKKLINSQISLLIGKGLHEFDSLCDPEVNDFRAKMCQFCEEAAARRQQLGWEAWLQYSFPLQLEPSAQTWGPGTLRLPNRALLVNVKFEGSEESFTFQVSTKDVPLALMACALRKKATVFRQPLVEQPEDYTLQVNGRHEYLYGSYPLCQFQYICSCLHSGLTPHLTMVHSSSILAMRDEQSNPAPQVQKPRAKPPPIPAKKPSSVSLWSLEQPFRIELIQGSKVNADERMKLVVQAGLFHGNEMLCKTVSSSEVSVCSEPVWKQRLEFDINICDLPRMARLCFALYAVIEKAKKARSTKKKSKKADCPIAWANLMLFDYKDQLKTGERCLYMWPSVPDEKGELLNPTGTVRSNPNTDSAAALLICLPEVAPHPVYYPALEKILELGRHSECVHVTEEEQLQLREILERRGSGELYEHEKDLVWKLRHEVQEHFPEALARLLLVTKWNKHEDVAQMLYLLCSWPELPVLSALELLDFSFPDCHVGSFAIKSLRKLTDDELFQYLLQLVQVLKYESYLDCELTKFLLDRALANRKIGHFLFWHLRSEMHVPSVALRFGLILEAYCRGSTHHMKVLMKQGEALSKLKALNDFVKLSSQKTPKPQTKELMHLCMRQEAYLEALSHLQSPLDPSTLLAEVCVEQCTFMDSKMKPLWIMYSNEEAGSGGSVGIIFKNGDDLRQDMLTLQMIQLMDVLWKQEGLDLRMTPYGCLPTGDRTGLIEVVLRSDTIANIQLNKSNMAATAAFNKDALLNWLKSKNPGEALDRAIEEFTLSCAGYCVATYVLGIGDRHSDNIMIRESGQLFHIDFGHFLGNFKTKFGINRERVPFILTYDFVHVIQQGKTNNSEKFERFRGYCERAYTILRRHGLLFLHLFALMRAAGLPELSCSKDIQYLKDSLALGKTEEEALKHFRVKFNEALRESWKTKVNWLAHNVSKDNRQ

[4] = Inhibition of adenosine transporter in human HeLa cells assessed as reduction in [3H]adenosine uptake preincubated for 30 mins followed by [3H]adenosine addition and measured after 60 mins; format: ADME, cell-based
Homo sapiens = species on record: Homo sapiens; assay: Selectivity ratio of IC50 for N-terminal His6-tagged recombinant full length human p110alpha/untagged recombinant full length human p85alpha expressed in baculovirus infected Sf21 insect cells to IC50 for N-terminal His6-tagged recombinant full length human p110delta/untagged recombinant full length human p85alpha expressed in baculovirus infected Sf21 insect cells
Phosphodiesterase 1 = Phosphodiesterase 1 (Homo sapiens, UniProt P54750+Q01064+Q14123); assay: Inhibition of PDE1 (unknown origin); format: protein assay
[5] = target: cGMP-dependent 3',5'-cyclic phosphodiesterase (Homo sapiens, UniProt O00408); assay: Inhibition of PDE2 (unknown origin)
Sequence of cGMP-dependent 3',5'-cyclic phosphodiesterase (O00408 whole entry): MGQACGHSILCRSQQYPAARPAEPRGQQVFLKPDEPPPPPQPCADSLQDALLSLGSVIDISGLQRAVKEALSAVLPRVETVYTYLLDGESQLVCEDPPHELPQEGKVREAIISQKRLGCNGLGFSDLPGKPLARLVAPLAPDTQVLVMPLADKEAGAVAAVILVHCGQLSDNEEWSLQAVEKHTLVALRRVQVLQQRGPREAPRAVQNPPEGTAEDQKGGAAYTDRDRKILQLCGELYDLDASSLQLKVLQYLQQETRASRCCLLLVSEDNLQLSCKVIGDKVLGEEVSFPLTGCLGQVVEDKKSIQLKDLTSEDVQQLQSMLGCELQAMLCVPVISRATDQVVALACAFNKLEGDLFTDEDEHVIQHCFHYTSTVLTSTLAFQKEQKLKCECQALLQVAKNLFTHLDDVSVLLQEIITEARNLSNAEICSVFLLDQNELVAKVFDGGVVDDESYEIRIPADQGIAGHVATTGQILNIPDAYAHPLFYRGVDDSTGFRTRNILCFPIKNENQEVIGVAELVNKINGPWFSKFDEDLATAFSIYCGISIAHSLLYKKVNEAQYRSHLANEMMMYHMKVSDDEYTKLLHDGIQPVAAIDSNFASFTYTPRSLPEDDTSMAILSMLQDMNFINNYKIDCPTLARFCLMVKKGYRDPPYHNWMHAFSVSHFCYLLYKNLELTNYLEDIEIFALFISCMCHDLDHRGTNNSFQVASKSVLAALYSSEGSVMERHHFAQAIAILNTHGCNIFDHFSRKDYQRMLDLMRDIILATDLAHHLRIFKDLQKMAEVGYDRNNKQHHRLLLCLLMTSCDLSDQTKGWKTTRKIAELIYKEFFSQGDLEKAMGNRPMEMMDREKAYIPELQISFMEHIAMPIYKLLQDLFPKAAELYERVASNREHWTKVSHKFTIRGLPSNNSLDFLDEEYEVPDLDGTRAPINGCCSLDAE

Phosphodiesterase 3 = Phosphodiesterase 3 (Homo sapiens, UniProt Q14432+Q13370); assay: Inhibition of PDE3 (unknown origin); format: protein assay
Phosphodiesterase 4 = Phosphodiesterase 4 (Homo sapiens, UniProt P27815+Q08499+Q07343+Q08493); assay: Inhibition of PDE4 (unknown origin); format: protein assay
[6] = target: cGMP-specific 3',5'-cyclic phosphodiesterase (Homo sapiens, UniProt O76074); assay: Inhibition of PDE5 (unknown origin)
Phosphodiesterase 6 = assay: Inhibition of PDE6 (unknown origin); format: protein assay, Homo sapiens
Phosphodiesterase 7 = Phosphodiesterase 7 (Homo sapiens, UniProt Q13946+Q9NP56); assay: Inhibition of PDE7 (unknown origin); format: protein assay
[7] = target: High affinity cAMP-specific and IBMX-insensitive 3',5'-cyclic phosphodiesterase 8A (Homo sapiens, UniProt O60658); assay: Inhibition of PDE8 (unknown origin)
Sequence of High affinity cAMP-specific and IBMX-insensitive 3',5'-cyclic phosphodiesterase 8A (O60658 whole entry): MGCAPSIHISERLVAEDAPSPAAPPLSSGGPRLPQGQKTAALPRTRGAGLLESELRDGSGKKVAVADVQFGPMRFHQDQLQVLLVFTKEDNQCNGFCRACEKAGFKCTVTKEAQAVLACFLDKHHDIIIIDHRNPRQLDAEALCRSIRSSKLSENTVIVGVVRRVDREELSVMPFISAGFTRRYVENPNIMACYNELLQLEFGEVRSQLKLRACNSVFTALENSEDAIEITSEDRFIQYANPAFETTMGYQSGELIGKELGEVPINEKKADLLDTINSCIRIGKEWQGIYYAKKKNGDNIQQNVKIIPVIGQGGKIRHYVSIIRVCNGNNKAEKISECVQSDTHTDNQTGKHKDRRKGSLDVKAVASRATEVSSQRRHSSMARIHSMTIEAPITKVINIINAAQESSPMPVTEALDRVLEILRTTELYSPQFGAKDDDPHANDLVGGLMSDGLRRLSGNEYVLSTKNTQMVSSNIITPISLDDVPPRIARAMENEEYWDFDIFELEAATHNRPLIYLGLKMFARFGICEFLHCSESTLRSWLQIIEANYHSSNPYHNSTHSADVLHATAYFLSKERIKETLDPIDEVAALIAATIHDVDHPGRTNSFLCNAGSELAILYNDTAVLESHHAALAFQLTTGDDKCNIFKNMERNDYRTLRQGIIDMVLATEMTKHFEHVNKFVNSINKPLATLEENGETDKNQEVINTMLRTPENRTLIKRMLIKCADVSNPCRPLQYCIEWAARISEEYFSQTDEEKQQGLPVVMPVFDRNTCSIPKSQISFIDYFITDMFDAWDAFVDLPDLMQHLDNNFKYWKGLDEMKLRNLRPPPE

[8] = target: High affinity cGMP-specific 3',5'-cyclic phosphodiesterase 9A (Homo sapiens, UniProt O76083); assay: Inhibition of PDE9 (unknown origin)
[9] = target: cAMP and cAMP-inhibited cGMP 3',5'-cyclic phosphodiesterase 10A (Homo sapiens, UniProt Q9Y233); assay: Inhibition of PDE10 (unknown origin)
Sequence of cAMP and cAMP-inhibited cGMP 3',5'-cyclic phosphodiesterase 10A (Q9Y233 whole entry): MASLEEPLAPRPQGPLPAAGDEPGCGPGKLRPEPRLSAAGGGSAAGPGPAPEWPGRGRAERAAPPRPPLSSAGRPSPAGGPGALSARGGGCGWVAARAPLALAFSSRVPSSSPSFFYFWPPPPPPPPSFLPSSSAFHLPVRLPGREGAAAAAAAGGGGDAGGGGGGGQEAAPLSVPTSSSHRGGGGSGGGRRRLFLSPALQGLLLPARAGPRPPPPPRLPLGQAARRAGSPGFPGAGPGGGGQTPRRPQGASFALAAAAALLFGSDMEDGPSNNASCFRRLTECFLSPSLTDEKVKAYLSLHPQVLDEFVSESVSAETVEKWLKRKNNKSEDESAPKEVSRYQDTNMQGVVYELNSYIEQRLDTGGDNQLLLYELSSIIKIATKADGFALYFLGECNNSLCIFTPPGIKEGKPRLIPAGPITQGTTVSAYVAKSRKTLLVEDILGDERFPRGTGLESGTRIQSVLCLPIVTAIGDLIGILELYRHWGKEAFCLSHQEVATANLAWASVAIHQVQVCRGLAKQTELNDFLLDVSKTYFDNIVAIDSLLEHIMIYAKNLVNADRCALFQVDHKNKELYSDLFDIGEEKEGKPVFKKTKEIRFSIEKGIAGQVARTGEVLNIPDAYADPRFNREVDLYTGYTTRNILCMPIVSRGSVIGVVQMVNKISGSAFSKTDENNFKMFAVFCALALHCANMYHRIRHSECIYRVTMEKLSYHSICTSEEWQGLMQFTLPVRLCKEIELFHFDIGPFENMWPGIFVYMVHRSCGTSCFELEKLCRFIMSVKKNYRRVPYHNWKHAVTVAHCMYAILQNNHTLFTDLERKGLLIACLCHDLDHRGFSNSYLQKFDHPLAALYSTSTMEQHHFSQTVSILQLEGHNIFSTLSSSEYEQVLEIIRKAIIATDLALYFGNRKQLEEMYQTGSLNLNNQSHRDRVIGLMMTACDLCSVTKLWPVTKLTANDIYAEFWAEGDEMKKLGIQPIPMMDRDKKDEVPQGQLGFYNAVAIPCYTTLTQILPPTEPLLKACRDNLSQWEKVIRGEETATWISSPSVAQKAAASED

[10] = target: Dual 3',5'-cyclic-AMP and -GMP phosphodiesterase 11A (Homo sapiens, UniProt Q9HCR9); assay: Inhibition of PDE11 (unknown origin)
[11] = Plasma clearance in Wistar Han rat at 0.5 mg/kg, iv or 1 mg/kg, po; format: ADME, organism-based
[12] = Volume of distribution in Wistar Han rat; format: ADME; settings: in vivo
[13] = Unbound volume of distribution in Wistar Han rat; format: ADME; settings: in vivo
[14] = Half-life in Wistar Han rat; format: ADME; settings: in vivo
[15] = Protein binding in Wistar Han rat plasma; format: ADME, cell-free; settings: read-out: PPB (converted)
[16] = Lipophilicity, log D of the compound; format: physicochemical; settings: octanol/water
[17] = Plasma clearance in Wistar Han rat at 0.05 mg/kg; format: ADME, organism-based
[18] = Intrinsic clearance in Wistar Han rat at 0.05 mg/kg; format: ADME, organism-based; settings: in vivo
[19] = target: T1, Phosphatidylinositol 4,5-bisphosphate 3-kinase catalytic subunit delta isoform; assay: Inhibition of PI3Kdelta in human whole blood assessed as reduction in anti-CD79b antibody-induced CD69 expression preincubated for 60 mins followed by anti-CD79b antibody stimulation and measured after 3 hrs by FACS analysis; format: tissue-based
[20] = target: T1, Phosphatidylinositol 4,5-bisphosphate 3-kinase catalytic subunit delta isoform; assay: Inhibition of PI3Kdelta in human whole blood assessed as reduction in antihuman IgE antibody-stimulated CD63 expression preincubated for 30 mins followed by antihuman IgE antibody stimulation and measured after 20 mins by FACS analysis; format: tissue-based
[21] = Protein binding in human plasma; format: ADME, cell-free; settings: read-out: PPB (converted)

Row | IC50 [1] [µM] | IC50 [2] [µM] | IC50 [3] [µM] | IC50 [4] [µM] | SMILES | further results
1 | 0.453 |  | 2.77 | > 10 | CCn1ncc(-c2nc3c(NC4CN(C(=O)C5CCOCC5)C4)ncnc3n2C)c1C | Ratio IC50 (Homo sapiens): 28
2 | 0.338 |  | 0.309 | 3.91 | CCC(=O)N1CCC[C@H](Nc2ncnc3c2nc(-c2cnn(CC)c2C)n3C)C1 | 
3 | 0.597 | 0.015 | 0.572 | 1.4 | CCn1ncc(-c2nc3c(S[C@H]4CCN(C(=O)C5CCOCC5)C4)ncnc3n2C)c1C | 
4 | 0.54 | 0.026 | 0.187 | > 1 | CCC(=O)N1CC[C@@H](Nc2ncnc3c2nc(-c2cnn(CC)c2C)n3C)C1 | 
5 | 0.09 | 0.011 | 0.153 | 5.52 | CCn1ncc(-c2nc3c(N[C@H]4CC[C@@H](C(=O)N5CCOCC5)C4)ncnc3n2C)c1C | 
6 | 1.19 | 0.8 |  | > 10 | CCC(=O)N1CCC(Nc2ncnc3c2nc(-c2cnn(CC)c2C)n3C)CC1 | 
7 | 0.035 | 0.0005 | 0.016 | 9.19 | CCn1ncc(-c2nc3c(N[C@H]4CCN(C(=O)C5CCOCC5)C4)ncnc3n2C)c1C | IC50 (Phosphodiesterase 1): > 20 µM; IC50 [5]: > 20 µM; IC50 (Phosphodiesterase 3): > 20 µM; IC50 (Phosphodiesterase 4): > 20 µM; IC50 [6]: > 20 µM; IC50 (Phosphodiesterase 6): > 20 µM; IC50 (Phosphodiesterase 7): > 20 µM; IC50 [7]: > 20 µM; IC50 [8]: > 20 µM; IC50 [9]: > 20 µM; IC50 [10]: > 20 µM; clearance [11]: 95 mL/min/kg; Vd [12]: 1.7 L/kg; Vdu [13]: 3 L/kg; half-life [14]: 12 min; fraction unbound [15]: 0.52; logD [16]: 0.8; clearance [17]: 95 mL/min/kg
8 | 0.094 | 0.0016 | 0.024 | 7.25 | CCC(=O)N1CC[C@H](Nc2ncnc3c2nc(-c2cnn(CC)c2C)n3C)C1 | IC50 (Phosphodiesterase 1): > 20 µM; IC50 [5]: > 20 µM; IC50 (Phosphodiesterase 3): > 20 µM; IC50 (Phosphodiesterase 4): 8.4 µM; IC50 [6]: > 20 µM; IC50 (Phosphodiesterase 6): > 20 µM; IC50 (Phosphodiesterase 7): > 20 µM; IC50 [7]: > 20 µM; IC50 [8]: > 20 µM; IC50 [9]: > 20 µM; IC50 [10]: > 20 µM; Vd [12]: 1.8 L/kg; Vdu [13]: 4 L/kg; half-life [14]: 24 min; fraction unbound [15]: 0.49; logD [16]: 0.8; clearance [17]: 58 mL/min/kg; CL [18]: 370 mL/min/kg
9 | 0.035 | 0.0009 | 0.013 | 1.59 | CCn1ncc(-c2nc3c(N[C@H]4CCN(C(=O)C5CC5)C4)ncnc3n2C)c1C | IC50 [19]: 0.035 µM; IC50 [20]: 0.33 µM; Vd [12]: 1.1 L/kg; Vdu [13]: 4 L/kg; half-life [14]: 18 min; fraction unbound [15]: 0.28; fraction unbound [21]: 0.45; logD [16]: 1; clearance [17]: 49 mL/min/kg; CL [18]: 410 mL/min/kg
10 | 0.904 |  | 2.21 | > 10 | CCC(=O)N1CC(Nc2ncnc3c2nc(-c2cnn(CC)c2C)n3C)C1 | Ratio IC50 (Homo sapiens): 16
11 | > 10 | 0.294 | 8.33 | > 10 | CCn1ncc(-c2nc3c(CC4CCN(C(=O)C5CCOCC5)C4)ncnc3n2C)c1C (racemic) | 

The remaining lines, values behind:

Row | SMILES | IC50 [1] [µM] | IC50 [2] [µM] | IC50 [3] [µM] | IC50 [4] [µM] | further results
12 | CCn1ncc(-c2nc3c(NC4CCN(CC(C)C)C4=O)ncnc3n2C)c1C (racemic) | 1.78 | 1.35 | 8.33 | 7.15 | 
13 | CC[C@H](Nc1ncnc2c1nc(-c1cnn(CC)c1C)n2C)C(=O)N1CCOCC1 | 0.274 |  |  |  | 
14 | CCn1ncc(-c2nc3c(N[C@@H](C)C(=O)N4CCOCC4)ncnc3n2C)c1C | 0.406 | 0.024 | 0.719 | 6.55 | 
15 | CCn1ncc(-c2nc3c(Oc4csc(C(=O)N5CCOCC5)c4)ncnc3n2C)c1C | 2.95 | 0.068 | 0.97 | 4.5 | 
16 | CCn1ncc(-c2nc3c(N[C@H](C)C(=O)N4CCOCC4)ncnc3n2C)c1C | > 10 | 1.08 |  | > 10 | 
17 | CCn1ncc(-c2nc3c(NC4CC(=O)N(CC(C)C)C4)ncnc3n2C)c1C (stereo not given) | 0.121 | 0.0043 | 0.045 | 2.25 | 
18 | CC[C@H](Nc1ncnc2c1nc(-c1cnn(CC)c1C)n2C)C(=O)N(C)C | 1.07 | 0.034 | 1.47 | > 10 | 
19 | CCCN1CC[C@H](Nc2ncnc3c2nc(-c2cnn(CC)c2C)n3C)C1 | 1.31 |  | 1.29 | 2.56 | 
